The test system of one experiment is MRSA strain 38. On the set-up: species or system S. aureus. The following applies: in vivo.
For experiment [1], the system named is S. aureus (MRSA strain 38). The following applies: in vivo, iv.

On to `CN[C@H](CC(C)C)C(=O)N[C@H]1C(=O)N[C@@H](CC(N)=O)C(=O)N[C@H]2C(=O)N[C@H]3C(=O)N[C@H](C(=O)N[C@H](C(=O)O)c4cc(O)cc(O)c4-c4cc3ccc4O)[C@H](O)c3ccc(c(Cl)c3)Oc3cc2cc(c3O[C@@H]2O[C@H](CO)[C@@H](O)[C@H](O)[C@H]2O[C@H]2C[C@](C)(N)[C@H](O)[C@H](C)O2)Oc2ccc(cc2Cl)[C@H]1O` [vancomycin], for which, in the experiment with MRSA strain 38, the “mIL-1ra level in abscess fluid” value is listed as “not significantly reduced”; the “mIL-6 level in abscess fluid” value was “not significantly reduced”; the “neutrophil and eosinophil counts” value is reported as “lower”. Also, in experiment [1], the IFN-γ in serum is given as 2.98 ± 1.64, the IL-1β in serum was 3.51 ± 1.08, the IL-6 in serum amounted to 379.72 ± 335.45 and the IL-10 in serum is listed as 16.75 ± 6.67. For the same molecule, in experiment [1], the IL-12p70 in serum was found to be 61.55 ± 23.71, the KC/GRO in serum is listed as 260.69 ± 122.01 and the TNF-α in serum stood at 1.46 ± 0.68.

The values are drawn from patent publication US20160039914A1 (priority 2013, published 2016).
